Measured values: patent US4673747A, “Aminoalkylphenoxy derivatives” (Ikeda Mohando Co., Ltd., priority 1984, dated 1987)
Like-named read-outs stand apart in the source and are kept apart here.

How the values were obtained:
[1] = test system: Gastric acid secretion induced by histamine; test: Inhibition effect on gastric acid secretion induced by histamine in pylorus ligated rat (subcutaneous); assay type: in vivo, rat (male Wistar); conditions: read-out: Secretion of Gastric Acid in Rat, Inhibition Rate (%)
Method: A male Wistar rat having a body weight of about 160 g and which had not fed for 24 hours was anesthetized by an intraperitonea dose of 1.2 g/kg of uretane. After ligating of pylorus and esophagus, the gaster anterior was incised and fitted with a double polyethylene cannula. The wall of the stomach was rinsed with 5 ml of saline at 30 minute intervals, and the quantities of gastric acid contained in each rinsing solution were measured by titration.
The basal acid secretion was initially measured three times, and then 0.2 mg/kg or 0.5 mg/kg of each of the compounds of this invention was administered subcutaneously and 3 mg/kg of histamine was administered subcutaneously after the lapse of an additional 30 minutes.
The quantity of gastric acid secreated after the operation was measured continuously for 3 hours. Within that measurement interval, three time points at which the increase in acid secretion reached a maximum level were selected, and the average quantity of gastric acid secreted at those time points was taken as the increase in acid secretion, which was compared with the increase in acid secretion of the control group to calculate the percent inhibition for secretion of gastric acid. [formula] (The result was shown as the average value of five runs.)

[2] = Acute toxicity test on mice dosed orally; parameters: species or system mouse (male ddy); conditions: mouse, in vivo, po, P.O., 14 days observation, read-out: Median lethal dose (LD50)
Method: Male ddy mice each having a body weight of about 22 g and which had not eaten for 8 hours were orally dosed with the test samples, and the general symptoms and fatalities were observed from the time immediately following the administration to 14 days after the administration.
The median lethal dose (LD50) was calculated in accordance with the Litchfield and Wilcoxon Method.

[3] = test system: Gastric acid secretion induced by histamine; test: Inhibitory effect of intraduodenally administered compounds on gastric acid secretion induced by histamine in rat; assay type: in vivo, rat (male Wistar); conditions: for ED50: 0.5 h, read-out: Median effective dose (ED50), Gastric Acid Secretion; for Efficacy Ratio relative to Cimetidine (Cimetidine = 1): from ED50; for ED50 value: times as effective as Cimetidine (activity ratio): text discussing Table 2
Histamine H2-Receptor = target: T1, Histamine H2-Receptor (Cavia porcellus, UniProt P47747); parameters: species or system guinea pig (male Hartley); conditions: isolated guinea pig atrium; negative logarithm of molar concentration; heart beats, histamine dose-response; read-out: Antagonistic Action against Histamine H2-Receptor (pA2) Determined by Using Atrium isolated from Guinea Pig (converted)
T1 construct: from tissue; host or cells: isolated atrium of male Hartley guinea pig
T1 sequence (P47747 whole entry): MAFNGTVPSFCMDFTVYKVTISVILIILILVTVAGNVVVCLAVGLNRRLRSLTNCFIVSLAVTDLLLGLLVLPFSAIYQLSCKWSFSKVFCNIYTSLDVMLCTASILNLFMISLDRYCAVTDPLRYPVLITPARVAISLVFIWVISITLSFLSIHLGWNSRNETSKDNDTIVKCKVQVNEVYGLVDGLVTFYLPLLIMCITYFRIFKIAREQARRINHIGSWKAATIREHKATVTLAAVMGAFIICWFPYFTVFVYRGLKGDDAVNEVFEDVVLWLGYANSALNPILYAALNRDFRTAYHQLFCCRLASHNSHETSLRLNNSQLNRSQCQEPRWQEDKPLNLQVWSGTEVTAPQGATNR
Method: A male Hartley guinea pig having a body weight of about 400 g was killed by cervical dislocation, and the artrium thereof was isolated and was suspended in an organ bath containing 50 ml of a modified Ringer solution and subjected to a tension of 1 g. The number of heart beats under such condition was recorded using a polygraph.
Initially, from 1×10^-7 mol to 3×10^-4 mol of histamine was allowed to act accumulatively to depict the curve of the dosage-reaction relationship. Likewise, the curve of the dosage of histamine-reaction relationship was depicted in the presence of 5×10^-7 mol to 1×10^-6 mol of the test sample which was injected 3 minutes before. The negative logarithm (pA2) of the molar concentration of the test sample required for moving the curve obtained by single administration of histamine parallel to the right side by a two-times concentration was calculated.

[4] = 0.5 mg/kg SC, histamine 3 mg/kg SC, average of five runs, * p<0.05, ** p<0.01 vs control group
[5] = intraduodenal, 30 minutes before SC histamine, rat

| Compound | inhibition in vivo at 0.5 mg/kg ([1]; sc) | LD50 at 336 h [2] | ED50 ([3]; Rattus norvegicus) | inhibition in vivo at 0.5 mg/kg [1, 4] | ED50 [3, 5] | Efficacy Ratio relative to Cimetidine (Cimetidine = 1) ([3]; intraduodenal, rat) | ED50 value: times as effective as Cimetidine (activity ratio) ([3]; intraduodenal, rat) | Kb (Histamine H2-Receptor) | inhibition in vivo at 0.2 mg/kg ([1]; 0.2 mg/kg SC, histamine 3 mg/kg SC, average of five runs, * p<0.05, ** p<0.01 vs control group) |
| --- | --- | --- | --- | --- | --- | --- | --- | --- | --- |
| CN/C(=N/CCSCc1nc[nH]c1C)NC#N [Cimetidine, reference compound] | 41% | 3300 mg/kg | 7.2 mg/kg | – | – | – | – | – | – |
| Nc1c(NC/C=C\COc2cccc(CN3CCCCC3)c2)c(=O)c1=O [Ex. 2, 1-amino-2-[4-<3-(1-piperidinomethyl)phenoxy>-cis-2-butenylamino]-1-cyclobuten-3,4-dione] | – | > 1500 mg/kg | – | 98% | 0.046 mg/kg | 156.5 | about 157 times | 0.0631 µM | – |
| CNc1c(NC/C=C\COc2cccc(CN3CCCCC3)c2)c(=O)c1=O [Ex. 3, 1-methylamino-2-[4-<3-(1-piperidinomethyl)phenoxy>-cis-2-butenylamino]-cyclobuten-3,4-dione] | – | > 1500 mg/kg | – | 79% | 0.036 mg/kg | 200.0 | ~200 times | 0.309 µM | – |
| Nc1n[nH]c(=O)nc1NC/C=C\COc1cccc(CN2CCCCC2)c1 [Ex. 9, 6-amino-5-[4-<3-(1-piperidinomethyl)phenoxy>-cis-2-butenylamino]-1,2,4-triazin-3-one] | – | 1200 mg/kg | – | 96% | – | – | – | 0.186 µM | – |
| CNc1n[nH]c(=O)nc1NC/C=C\COc1cccc(CN2CCCCC2)c1 [Ex. 10, 6-methylamino-5-[4-<3-(1-piperidinomethyl)phenoxy>-cis-2-butenylamino]-1,2,4-triazin-3-one] | – | > 1500 mg/kg | – | 103% | 8 mg/kg | 0.9 | – | 0.219 µM | – |
| Nc1cc(NC/C=C\COc2cccc(CN3CCCCC3)c2)nc(=O)[nH]1 [Ex. 13, 4-amino-6-[4-<3-(1-piperidinomethyl)phenoxy>-cis-2-butenylamino]-(1H)-pyrimidin-2-one] | – | > 1500 mg/kg | – | 91% | 0.52 mg/kg | 13.8 | – | 0.0832 µM | – |
| CNc1n[s+]([O-])nc1NC/C=C\COc1cccc(CN2CCCCC2)c1 (stereo not drawn) [Ex. 16, 3-methylamino-4-[4-<3-(1-piperidinomethyl)phenoxy>-cis-2-butenylamino]-1,2,5-thiadiazole-1-oxide] | – | > 1500 mg/kg | – | 98% | 0.04 mg/kg | 180.0 | ~180 times | 2.4 µM | – |
| O=c1c(NC/C=C\COc2cccc(CN3CCCCC3)c2)c(NCc2ccncc2)c1=O [Ex. 38] | – | – | – | – | 0.04 mg/kg | 180.0 | – | 0.589 µM | 98% |
